From patent US6750244B2, “Compounds active at a novel site on receptor-operated calcium channels useful for treatment of neurological disorders and diseases” (NPS Pharmaceuticals, Inc., priority 1993, dated 2004)
pIC50: −log10 of the molar value. Where two headings read alike, the source gives them in different places.

Legend:
[1] = system: formalin-induced flinching; type: in vivo, Sprague-Dawley rats
induction of LTP = system: induction of LTP; set-up: species or system rat
NMDA receptor [2] = details: rat hippocampal slices
Procedure: Glutamate-mediated transmission at synapses of Schaffer collateral fibers and CA1 pyramidal cells was measured in slices of rat brain containing the hippocampus. This assay measures electrophysiologically the postsynaptic depolarization caused by the presynaptic release of glutamate, and can readily distinguish synaptic transmission mediated by NMDA or AMPA receptors.

thermal nociception [3] = type: in vivo, rats
Procedure: In these experiments, a 52° C. hot plate was used as the nociceptive stimulus.

permanent focal ischemia = assay: Permanent focal cerebral ischemia (middle cerebral artery occlusion, suture); type: in vivo, rat; details: 10 mg/kg i.p. immediately after onset of ischemic event; 24 hr
Procedure: In the second study of focal cerebral ischemia in the rat, the middle cerebral artery was permanently occluded by passing a small piece of suture thread through the carotid artery to the region of the middle cerebral artery. Core body temperature was maintained at 37° C. Compound 4, 10 mg/kg i.p. administered immediately after the onset of the ischemic event, produced a statistically significant reduction in the volume of the brain infarct (20%) recorded 24 hr later.

temporary focal ischemia = assay: Temporary focal cerebral ischemia (middle cerebral artery occlusion, suture withdrawn after 2 hr); type: in vivo, rat; details: 10 mg/kg i.p. immediately after onset of ischemic event; 72 hr
Procedure: In a fourth model of focal cerebral ischemia in the rat, the middle cerebral artery was temporarily occluded by passing a small piece of suture thread through the carotid artery to the region of the middle cerebral artery. The suture thread was withdrawn after an ischemic period of 2 hr. Core body temperature was maintained at 37° C. […]

[4] = system: acetic acid-induced writhing; type: in vivo, mice; details: i.p.
sound-induced seizures = assay: Sound-induced seizures in Frings mice (reflex epilepsy); type: in vivo; details: intracerebroventricular (i.c.v.) injection
learning [5] = assay: Morris water maze task; type: in vivo, rats; details: 10 mg/kg i.p. daily for 5 days
Procedure: In a second series of experiments, the effect of Compound 4 on learning in the Morris water maze task was evaluated. In this test, a hidden platform was placed in a fixed location in a circular steel tank, and submerged 2 cm below the surface of the water. Each rat was given 3 trials per day with a 10 min intertrial interval for 5 days. A trial was initiated by placing the rat in the water, nose facing the wall of the tank, at one of three predetermined starting locations. The order of the start location was varied daily. Learning was measured as a decrease in time required to swim to the platform. […] The animals remained on the platform for 10 sec before being removed from the tank. Ten min after the last training trial on day 5, the animals received a probe test. The platform was removed for this 1 trial task and the animals were allowed to swim for 60 sec to assess the spatial bias for the platform location. Two measures were recorded from this task: latency to first crossing the area where the platform had been, and total number of crossings. A total of 5 injections of Compound 4 were given to each rat. In the first series of experiments, Compound 4 was administered at 10 mg/kg i.p. daily for 5 days. […] In a subsequent study, six animals received 1 mg/kg i.p. for the first 4 days of training, while two animals received 5 mg/kg i.p. during this period. […]

[6] = target: NMDA receptor-ionophore complex (site labeled by [3H]MK-801); assay: Inhibition of [3H]MK-801 binding in rat cortical/hippocampal washed membrane preparations; details: read-out: IC50 (μM) vs. [3H]MK-801; rat cortical/hippocampal washed membranes
thermal nociception [7] = type: in vivo, rats; remark: listed apart in the source
Procedure: In this standard assay, the thermal nociceptive stimulus was 52° C. warm water with the latency to tail flick or withdrawal taken as the endpoint.

[8] = system: mean arterial blood pressure; details: for Drop in Mean Arterial Blood Pressure / Drop in Mean Arterial Blood Pressure: duration: 1.5 μmoles/kg i.v., rats
NMDA receptor [9] = assay: Inhibition of NMDA/glycine-induced increases in intracellular calcium in cultured rat cerebellar granule cells (RCGC); type: cell-based
focal ischemia = assay: Photothrombotic (Rose Bengal) model of focal cerebral ischemia; type: in vivo, rat; details: 10 mg/kg i.p. 30 min after the ischemic event
Source text: In a third model of focal cerebral ischemia in the rat, an ischemic infarct was produced by a photothrombotic method using the dye Rose Bengal.

[10] = system: forebrain ischemia (neuronal cell death); type: in vivo, gerbil
Procedure: Blood flow to the brain was interrupted for 7 minutes by clamping the carotid arteries. The test compounds were administered as a 'single dose given intraperitoneally (i.p.) 30 minutes after reinstating blood flow. During the course of these experiments, the core body temperature of the animals was maintained at 37° C. to prevent any hypothermic reaction. […]

audiogenic seizures = assay: animal or person; type: in vivo, DBA/2 mice; details: for EC50 in the audiogenic seizure model: mouse, in vivo
Procedure: (§1) The first two models used DBA/2 mice which are prone to audiogenic seizures. […] The test substances were administered 15-30 min before the convulsant stimulus.

motor performance [11] = assay: Acute motor impairment (rotorod) in mice; details: Frings mice, i.c.v. injection
Procedure: In this assay, Frings and CF1 mice were injected with test compound and placed on a knurled rod which rotated at a speed of 6 rpm. The ability of the mice to maintain equilibrium for long periods of time was determined; those mice that were unable to maintain equilibrium on the rotorod for 1 min in each of 3 trials were considered impaired.

NMDA-induced seizures = assay: animal or person; details: Mus musculus, sc, read-out: ED50 for NMDA stimulus
Procedure: as §1

mouse cortical neurons = assay: cells; details: Cortical neurone, read-out: IC50, prevention of NMDA-induced cell death
Source text: The effective concentrations of NMDA receptor antagonists vary depending on the particular experimental conditions and the type of cell studied (cortical, hippocampal, striatal).

L-type calcium channel [12] = system: T1, L-type calcium channel; assay: Inhibition of KCl depolarization-induced increases in intracellular calcium in cultured rat cerebellar granule cells; type: cell-based; details: read-out: L-type calcium channel: estimated IC50, KCl depolarization-induced increases in intracellular calcium; cultured rat cerebellar granule cells
T1 construct: L-type calcium channel: estimated IC50, KCl depolarization-induced increases in intracellular calcium; other: cultured
Source text: (§2) The ability of arylalkylamines to inhibit dihydropyridine-sensitive Ca^2+ channels was examined in cerebellar granule cells and a rat aortic smooth muscle cell line, A7r5 cells.

L-type calcium channel [13] = assay: as above; type: cell-based; details: cerebellar granule cells
Source text: as §2

motor performance [14] = details: 20 mg/kg s.c.
Source text: In this assay, animals are placed on a wire-holed grid suspended from a rotating metal bar which can be inverted. The animals are then scored for their ability to climb to the top or hang on to the grid. […] This assay provides an index of “behavioral disruption” that may result from ataxia, loss of the righting reflex, sedation, or muscle relaxation.

focal cerebral ischemia = assay: Middle cerebral artery occlusion, permanent, surgical ligation; type: in vivo, rat; details: maximally effective dose 10 mg/kg; 24 hours
Procedure: In the first study using this stroke model, one cerebral artery was permanently occluded by surgical ligation. The test compounds were administered 30 minutes after the occlusion by a single intraperitoneal (i.p.) injection. During the course of these experiments, the core body temperature of the animals was maintained at 37° C. to prevent any hypothermic reaction. Brains were assessed histologically for neuronal cell loss 24 hours later. Infarct volumes were calculated using the area of histological pallor from 10 slides and integrating the distance between each successive section.

learning [15] = assay: T maze learning test; details: i.p. 15 min before testing
Source text: In this test, rats were trained to alternate turning in a T maze for a food reward.

[16] = read-out: IC50 against NMDA receptor-mediated increases in [Ca2+]i in cerebellar granule cells

NCCCNCCCCNCCCNCCCNCCCNC(=O)Cc1c[nH]c2ccc(F)cc12 [Compound 4]
late-phase flinching, administered after the formalin ([1]; 0.3-10 nmol i.th., 10 min after formalin): significance achieved at the 3 and 10 nmol doses
flinching behaviors, pretreatment to formalin ([1]; 0.3-10 nmol i.th., 10 min prior to formalin): effectively inhibited both early- and late-phase flinching behaviors
LTP Assay (block of the induction of LTP) (induction of LTP; at 100 μM): no block
Suppression of NMDA Receptor-Mediated Synaptic Transmission (concentration which suppresses) (NMDA receptor [2]): 10 to 100 µM
antinociceptive effect, hot plate (thermal nociception [3]; 0.3-3 nmol i.th.): dose- and time-dependent antinociceptive effects
reduction in the volume of the brain infarct (permanent focal ischemia): 20%
reduction in the volume of the brain infarct (temporary focal ischemia): 37%
IC50, inhibition of acetic acid-induced writhing [4]: 1 mg/kg
IC50, prevention of sound-induced seizures (sound-induced seizures): 4.77 µg
learning in the Morris water maze (learning [5]): impaired learning
IC50 [6]: 89 µM
analgesic effect, tail flick (52° C. warm water) (thermal nociception [7]; 0.3-3 nmol i.th.): dose- and time-dependent analgesic effect
Drop in Mean Arterial Blood Pressure [8]: 40 mm Hg at
Drop in Mean Arterial Blood Pressure: duration [8]: i.v., 120 min
drop in mean arterial pressure ([8]; 10 mg/kg i.p.): 40 mm Hg
persistence of the drop in mean arterial pressure ([8]; 10 mg/kg i.p.): 90 to 120 min
IC50 (NMDA receptor [9]; NMDA/glycine-induced increases in intracellular calcium, cultured rat cerebellar granule cells; read-out: IC50 (μM) vs. NMDA): 0.184 µM
reduction in the volume of the infarct (focal ischemia): 20%
reduction in neuronal death / protection in region CA1 of the hippocampus ([10]; 10 mg/kg, 7 days post-ischemia): 90%
EC50 in the audiogenic seizure model (audiogenic seizures): 0.08 mg/kg
TD50, acute motor impairment (motor performance [11]): 8 to 16 µg

NCCCNCCCCNCCCNCCCNCCCNC(=O)Cc1c[nH]c2ccccc12 [Compound 2]
Suppression of NMDA Receptor-Mediated Synaptic Transmission (concentration which suppresses) (NMDA receptor [2]): 10 to 30 µM
ED50 (NMDA-induced seizures): 0.083 mg/kg
pIC50 (mouse cortical neurons): 4.52
Drop in Mean Arterial Blood Pressure [8]: 40 mm Hg at
Drop in Mean Arterial Blood Pressure: duration [8]: i.v., 120 min
pIC50 (L-type calcium channel [12]): 4.62
concentrations inhibiting depolarization-induced increases in [Ca2+]i relative to those blocking responses to NMDA (L-type calcium channel [13]): 100 fold
motor performance in the inverted grid assay (motor performance [14]): without effect
IC50 (NMDA receptor [9]; read-out: IC50 (μM) vs. NMDA; NMDA/glycine-induced increases in intracellular calcium, cultured rat cerebellar granule cells): 0.192 µM
pIC50 (NMDA receptor [9]; [16]): 6.79
protection against neuronal cell death (CA1 of hippocampus, striatum and neocortex) ([10]; 20 mg/kg i.p. 30 minutes after reinstating blood flow, 4 days): significantly (p<0.05) protected against neuronal cell death
protection of the striatum ([10]; doses as low as 1 mg/kg): > 98%
ED50 (audiogenic seizures; Mus musculus, sc, read-out: ED50 for audiogenic stimulus): 0.13 mg/kg

C[C@]12N[C@H](Cc3ccccc31)c1ccccc12 [MK-801, reference compound]
induction of LTP (p<0.05) (induction of LTP; slices superfused 30-60 min): significantly blocked
antinociceptive effect, hot plate (thermal nociception [3]; 3-30 nmol): ineffective
protection against neuronal cell loss (focal cerebral ischemia): approximately 15%
analgesic effect, tail flick (52° C. warm water) (thermal nociception [7]; 3-30 nmol): ineffective
ability to make the correct choices in the T maze (learning [15]): progressively decreased the number of correct choices
EC50 in the audiogenic seizure model (audiogenic seizures): 0.02 mg/kg
